Assay results from patent US4463171A, “Derivatives of macrolide antibiotics” (Sanraku-Ocean Co., Ltd., priority 1982, dated 1984).
Values after ≈ are worked out from the molar mass of the structure shown. Like-named read-outs stand apart in the source and are kept apart here.

What was measured:
Experiment in all cases: Antibacterial activity (minimum inhibitory concentration), tube dilution method
Format in all cases: cell-based
[1] = tested on: Klebsiella pneumoniae PCI602
Description: (§1) The antibacterial activities of some typical compounds of this invention were measured by a tube dilution method in a brain heart infusion broth (pH 7.5) as a culture medium.

[2] = tested on: Staphylococcus aureus 209P
Description: as §1

[3] = tested on: Staphylococcus aureus MS9861; details: for MIC: Staphylococcus aureus
Description: as §1

[4] = tested on: Bacillus subtilis NRRL B558; details: for MIC: Bacillus subtilis
Description: as §1

[5] = PCI602, tube dilution method, brain heart infusion broth (pH 7.5), read-out: minimum inhibitory concentration, Klebsiella pneumoniae PCI602
[6] = tube dilution method, brain heart infusion broth (pH 7.5), read-out: minimum inhibitory concentration, Staphylococcus aureus 209P
[7] = MS9861, tube dilution method, brain heart infusion broth (pH 7.5), read-out: minimum inhibitory concentration, Staphylococcus aureus MS9861
[8] = NRRLB558, tube dilution method, brain heart infusion broth (pH 7.5), read-out: minimum inhibitory concentration, Bacillus subtilis NRRL B558
[9] = tube dilution method, brain heart infusion broth (pH 7.5)

| Structure (SMILES) | MIC [1, 5] | MIC [2, 6] | MIC [3, 7] | MIC [4, 8] | MIC ([1]; PCI602, pH 7.5, read-out: minimum inhibitory concentration, Klebsiella pneumoniae PCI602) | MIC ([2]; pH 7.5, read-out: minimum inhibitory concentration, Staphylococcus aureus 209P) | MIC ([3]; MS9861, pH 7.5, read-out: minimum inhibitory concentration, Staphylococcus aureus MS9861, tube dilution method, brain heart infusion broth (pH 7.5)) | minimum inhibitory concentration, Staphylococcus aureus MS9861 [3, 9] | MIC ([4]; NRRLB558, pH 7.5, read-out: minimum inhibitory concentration, Bacillus subtilis NRRL B558, tube dilution method, brain heart infusion broth (pH 7.5)) | minimum inhibitory concentration, Bacillus subtilis NRRL B558 [4, 9] |
| --- | --- | --- | --- | --- | --- | --- | --- | --- | --- | --- |
| CCC1OC(=O)CC(OC(C)=O)C(C)C(OC2OC(C)C(OC3CC(C)(O)C(OC(=O)CC(C)C)C(C)O3)C(N(C)C)C2O)C(CC=O)CC(C)C(=O)C=CC(C)=CC1CO (stereo not drawn) [N-1 substance, 3-O-acetyl-4"-O-isovaleryl-YO-9010, reference compound] | 3.1 µg/mL (≈ 3.57 µM) | 0.4 µg/mL (≈ 0.461 µM) | 1.6 µg/mL (≈ 1.84 µM) | 0.8 µg/mL (≈ 0.922 µM) | – | – | – | – | – | – |
| CCC1OC(=O)CC(O)C(C)C(OC2OC(C)C(OC3CC(C)(O)C(O)C(C)O3)C(N(C)C)C2O)C(CC=O)CC(C)C(=O)C=CC(C)=CC1COS(=O)(=O)c1ccc(C)cc1 (stereo not drawn) [R1=H, R3=H, AR4=drawing 79] | 25 µg/mL (≈ 27.9 µM) | 0.8 µg/mL (≈ 0.893 µM) | 6.3 µg/mL (≈ 7.03 µM) | 0.4 µg/mL (≈ 0.446 µM) | – | – | – | – | – | – |
| CCC1OC(=O)CC(O)C(C)C(OC2OC(C)C(OC3CC(C)(O)C(O)C(C)O3)C(N(C)C)C2O)C(CC=O)CC(C)C(=O)C=CC(C)=CC1CO (stereo not drawn) [Antibiotic YO9010, 23-demycinosyltylosin, reference compound] | 12.5 µg/mL (≈ 16.8 µM) | 0.8 µg/mL (≈ 1.08 µM) | 3.1 µg/mL (≈ 4.18 µM) | 1.6 µg/mL (≈ 2.16 µM) | – | – | – | – | – | – |
| CCC1OC(=O)CC(O)C(C)C(OC2OC(C)C(OC3CC(C)(O)C(OC(=O)CC(C)C)C(C)O3)C(N(C)C)C2O)C(CC=O)CC(C)C(=O)C=CC(C)=CC1COC(=O)CC(C)C (stereo not drawn) [R1=H, R3=drawing 77, AR4=drawing 78] | 6.3 µg/mL (≈ 6.92 µM) | 1.6 µg/mL (≈ 1.76 µM) | 12.5 µg/mL (≈ 13.7 µM) | 0.8 µg/mL (≈ 0.879 µM) | – | – | – | – | – | – |
| CCC1OC(=O)CC(O)C(C)C(OC2OC(C)C(OC3CC(C)(O)C(O)C(C)O3)C(N(C)C)C2O)C(CC=O)CC(C)C(=O)C=CC(C)=CC1COC(=O)Cc1ccccc1 (stereo not drawn) [R1=H, R3=H, AR4=drawing 71] | – | – | – | – | 6.3 µg/mL (≈ 7.33 µM) | 0.4 µg/mL (≈ 0.465 µM) | 1.6 µg/mL (≈ 1.86 µM) | 3.1 µg/mL (≈ 3.6 µM) | < 0.2 µg/mL | 0.4 µg/mL (≈ 0.465 µM) |
| CCC1OC(=O)CC(O)C(C)C(OC2OC(C)C(OC3CC(C)(OC(C)=O)C(OC(=O)CC(C)C)C(C)O3)C(N(C)C)C2O)C(CC=O)CC(C)C(=O)C=CC(C)=CC1COC(C)=O (stereo not drawn) [(R2)=COCH3, R3=drawing 75, AR4=OCOCH3] | 25 µg/mL (≈ 27.5 µM) | 1.6 µg/mL (≈ 1.76 µM) | 6.3 µg/mL (≈ 6.92 µM) | 1.6 µg/mL (≈ 1.76 µM) | – | – | – | – | – | – |
| CCC1OC(=O)CC(O)C(C)C(OC2OC(C)C(OC3CC(C)(O)C(O)C(C)O3)C(N(C)C)C2O)C(CC=O)CC(C)C(=O)C=CC(C)=CC1CBr (stereo not drawn) [R1=H, R3=H, AR4=Br, 23-Deoxy-23-bromo-YO-9010] | 6.3 µg/mL (≈ 7.83 µM) | < 0.2 µg/mL | 0.8 µg/mL (≈ 0.994 µM) | < 0.2 µg/mL | – | – | – | – | – | – |
| CCC1OC(=O)CC(O)C(C)C(OC2OC(C)C(OC3CC(C)(O)C(O)C(C)O3)C(N(C)C)C2O)C(CC=O)CC(C)C(=O)C=CC(C)=CC1COC1CCCCO1 (stereo not drawn) [R1=H, R3=H, AR4=drawing 84] | 12.5 µg/mL (≈ 15.1 µM) | 0.8 µg/mL (≈ 0.968 µM) | 3.1 µg/mL (≈ 3.75 µM) | 0.8 µg/mL (≈ 0.968 µM) | – | – | – | – | – | – |
| CCC1OC(=O)CC(O)C(C)C(OC2OC(C)C(OC3CC(C)(OC(C)=O)C(OC(=O)CC(C)C)C(C)O3)C(N(C)C)C2O)C(CC=O)CC(C)C(=O)C=CC(C)=CC1CO (stereo not drawn) [(R2)=COCH3, R3=drawing 66, AR4=OH, 3"-O-acetyl-4"-O-isovaleryl-YO-9010] | > 100 µg/mL | 0.8 µg/mL (≈ 0.922 µM) | 3.1 µg/mL (≈ 3.57 µM) | 0.4 µg/mL (≈ 0.461 µM) | – | – | – | – | – | – |
| CCC1OC(=O)CC(O)C(C)C(OC2OC(C)C(OC3CC(C)(O)C(OC(=O)CC(C)C)C(C)O3)C(N(C)C)C2O)C(CC=O)CC(C)C(=O)C=CC(C)=CC1CSc1ccccc1 (stereo not drawn) [R1=H, R3=drawing 82, AR4=drawing 83] | > 100 µg/mL | 3.1 µg/mL (≈ 3.38 µM) | 6.3 µg/mL (≈ 6.86 µM) | 3.1 µg/mL (≈ 3.38 µM) | – | – | – | – | – | – |
| CCC1OC(=O)CC(O)C(C)C(OC2OC(C)C(OC3CC(C)(O)C(OC(=O)CSc4ccccc4)C(C)O3)C(N(C)C)C2O)C(CC=O)CC(C)C(=O)C=CC(C)=CC1COC(C)=O (stereo not drawn) [R1=H, R3=drawing 76, AR4=OCOCH3] | 100 µg/mL (≈ 107 µM) | 0.8 µg/mL (≈ 0.856 µM) | 1.6 µg/mL (≈ 1.71 µM) | 0.2 µg/mL (≈ 0.214 µM) | – | – | – | – | – | – |
| CCC1OC(=O)CC(O)C(C)C(OC2OC(C)C(OC3CC(C)(O)C(O)C(C)O3)C(N(C)C)C2O)C(CC=O)CC(C)C(=O)C=CC(C)=CC1CSc1nnnn1C (stereo not drawn) [R1=H, R3=H, AR4=drawing 81] | 12.5 µg/mL (≈ 14.9 µM) | 0.8 µg/mL (≈ 0.952 µM) | 3.1 µg/mL (≈ 3.69 µM) | < 0.2 µg/mL | – | – | – | – | – | – |
| CCC1OC(=O)CC(O)C(C)C(OC2OC(C)C(OC3CC(C)(O)C(O)C(C)O3)C(N(C)C)C2O)C(CC=O)CC(C)C(=O)C=CC(C)=CC1COC(=O)C(O)c1ccccc1 (stereo not drawn) [R1=H, R3=H, AR4=drawing 73] | 12.5 µg/mL (≈ 14.3 µM) | 0.4 µg/mL (≈ 0.457 µM) | 1.6 µg/mL (≈ 1.83 µM) | < 0.2 µg/mL | – | – | – | – | – | – |
